Key:
PP1α (PP1CA) = biological target: T1, PP1α (PP1CA) (Oryctolagus cuniculus, UniProt P62139); test: Protein phosphatase test (PP1 activity, DiFMUP fluorescent substrate); assay type: biochemical; settings: PP1CA at 80 mU, fluorescent substrate (50 μM), molecules from 50 μM to 50 nM; read-out: PP1 Inhibition IC50
T1 construct: purchased New England Biolabs P0754
Method in brief: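 PP1α (30 or 80 mU) in 100 mM Tris-HCl pH 7.5, 4 mM DTT, 0.2 mM EDTA, 0.5 mM MnCl2 was preincubated 15 min with compound (50 μM to 50 nM), then given 60 μM DiFMUP for 20 min at 37 °C. Phosphatase activity was read as fluorescence at 355-460 nm, three times in duplicate.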

HeLa cells = test: Indirect immunofluorescence: effect on HeLa cells (mitotic arrest, microtubule depolymerization); assay type: cell-based, human; design: key to Effect on Hela at 25 μM / Effect on Hela at 100 μM / Effect on Hela at 50 and 100 μM / Effect on Hela at 50 μM: —: −: no activity on the cells at 25 μM (if there is an effect at high concentrations, this is specified in the table).; *: weak activity (MA and/or slight depolymerization of the MTs and/or slight inhibition of proliferation),; **: average activity (MA and/or moderate depolymerization of the MTs and/or moderate inhibition of proliferation),; ***: strong activity (MA and/or pronounced depolymerization of the MTs and/or pronounced inhibition of proliferation),; ****: very strong activity (MA and/or very pronounced depolymerization of the MTs and/or strong inhibition of proliferation)
Method in brief: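 HeLa cells exposed 24 h to compound (100 μM to 50 nM; primary series 1–10 μM), DMSO controls. PFA/glutaraldehyde-fixed cells immunostained for α-tubulin, actin (phalloidin) and DNA (Hoechst); fluorescence microscopy scored phenotypes and mitotic index, with mitotic index and/or MT depolymerization evaluated at 25 μM.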

[1] = In vivo toxicity in nude mice (weight, maximum tolerated oral dose); settings: 200 mg/kg per os twice weekly over 2 months, 63 days
Experimental: FIG. 14 presents the change in the weight of nude mice over 63 days. The mice received an administration of compound 6 (200 mg/kg) per os twice weekly over 2 months.
Compound 6 was dissolved at 8 mg/ml in a 60 mg/ml aqueous solution of beta-cyclodextrin (vehicle).
For the in vivo experiments, molecule 6 (8 mg/ml) was prepared in 60 mg/ml of β-cyclodextrin (Sigma #4805) dissolved in water and vortexed.
All the animal experiments were carried out according to the recommendations of the local ethics commmittee. Nude mice (NCr-nu/nu females (Harlan Laboratories), were housed in a room with filtered air at 22° C., alternating 12 hours of day and 12 hours of night.
The mice received compound 6 per os in doses and at intervals described in the captions to the figures. The control mice received the vehicle alone (identical volume of beta-cyclodextrin at 60 mg/ml))

T1 sequence (P62139 whole entry): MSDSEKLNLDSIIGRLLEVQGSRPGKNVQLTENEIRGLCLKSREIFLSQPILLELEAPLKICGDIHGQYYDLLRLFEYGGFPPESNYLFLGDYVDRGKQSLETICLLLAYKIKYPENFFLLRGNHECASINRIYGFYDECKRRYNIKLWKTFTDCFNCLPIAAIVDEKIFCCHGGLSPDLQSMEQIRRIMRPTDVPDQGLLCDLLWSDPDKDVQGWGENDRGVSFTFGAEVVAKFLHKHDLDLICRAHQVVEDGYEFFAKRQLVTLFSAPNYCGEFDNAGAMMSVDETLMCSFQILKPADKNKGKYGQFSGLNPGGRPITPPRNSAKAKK

For `COc1ccc(-c2[nH]c(=O)c3cc(OC)ccc3c2[N+](=O)[O-])cc1` [Compound 6, 7-methoxy-3-(4-methoxyphenyl)-4-nitroisoquinoline-1(2H)-one], the IC50 (PP1α (PP1CA)) was ≤ 9 µM, the “Effect on Hela at 25 μM” value (HeLa cells; 25 μM, 24 hours, mitotic index and/or depolymerization of the MTs) was “****” and the “phenotype on microtubules and actin cytoskeleton, HeLa cells in interphase” value (HeLa cells; 1 and 10 μM for 24 hours) was “depolymerization of the microtubules and a reorganization of the actin cytoskeleton”. The “phenotype on microtubules and actin cytoskeleton, HeLa cells in mitosis” value (HeLa cells; 1 and 10 μM for 24 hours) was “depolymerization of the spindle microtubules and actin blebbing at the level of the cortex” and the “effect on the weight of nude mice” value [1] was “no significant effect”.

Reference: patent US8883763B2 (Universite Joseph Fourier, priority 2010, dated 2014)
